Experimental data from ChEMBL document CHEMBL1145073, “DNA binding ligands targeting drug-resistant bacteria: structure, activity, and pharmacology” (J Med Chem, 2003).
Converted amounts (≈) assume the structure as drawn.

Experiments:
Enterococcus faecalis = test: In vitro antimicrobial activity against vancomycin-susceptible Enterococcus faecalis 29212; assay type: functional
[1] = In vitro antimicrobial activity against penicillin-intermediate Streptococcus pneumoniae 49619; assay type: functional

Structure (SMILES) | MIC (Enterococcus faecalis) [µg/mL] | MIC [1] [µg/mL]
Cn1cc(NC(=O)c2cc(NC(=O)c3cc(NC(=O)c4ccccc4)cn3C)cn2C)cc1C(=O)NCCN1CCOCC1 | 32 (≈ 53.3 µM) | 16 (≈ 26.6 µM)
Cn1cc(NC(=O)c2cc(NC(=O)c3cc(NC(=O)c4ccc5cnccc5n4)cn3C)cn2C)cc1C(=O)NCCN1CCOCC1 | 4 (≈ 6.13 µM) | 0.25 (≈ 0.383 µM)
Cn1cc(NC(=O)c2cc(NC(=O)c3cc(NC(=O)c4ccc(OC(F)F)cc4)cn3C)cn2C)cc1C(=O)NCCN1CCOCC1 | 4 (≈ 6 µM) | 0.062 (≈ 0.093 µM)
Cn1cc(NC(=O)c2cc(NC(=O)c3cc(NC(=O)c4ccc5ccccc5n4)cn3C)cn2C)cc1C(=O)NCCN1CCOCC1 | 32 (≈ 49.1 µM) | 1 (≈ 1.53 µM)
Cn1cc(NC(=O)c2cc(NC(=O)c3cc(NC(=O)c4csc(-c5cccnc5)n4)cn3C)cn2C)cc1C(=O)NCCN1CCOCC1 | > 32 | 2 (≈ 2.92 µM)
Cn1cc(NC(=O)c2cc(NC(=O)c3cc(NC(=O)c4ccc(OC(F)(F)F)cc4)cn3C)cn2C)cc1C(=O)NCCN1CCOCC1 | > 32 | 1 (≈ 1.46 µM)
COc1cc(Cl)ccc1C(=O)Nc1cc(C(=O)Nc2cc(C(=O)Nc3cc(C(=O)NCCN4CCOCC4)n(C)c3)n(C)c2)n(C)c1 | 8 (≈ 12 µM) | 0.5 (≈ 0.752 µM)
Cn1cc(NC(=O)c2cc(NC(=O)c3cc(NC(=O)c4cc5cccc(Cl)c5s4)cn3C)cn2C)cc1C(=O)NCCN1CCOCC1 | > 32 | 2 (≈ 2.89 µM)
Cn1cc(NC(=O)c2cc(NC(=O)c3cc(NC(=O)c4ccc5cccnc5n4)cn3C)cn2C)cc1C(=O)NCCN1CCOCC1 | > 32 | 2 (≈ 3.06 µM)
Cn1cc(NC(=O)c2cc(NC(=O)c3cc(NC(=O)c4cccs4)cn3C)cn2C)cc1C(=O)NCCN1CCOCC1 | 16 (≈ 26.4 µM) | 2 (≈ 3.3 µM)
Cn1cc(NC(=O)c2cc(NC(=O)c3cc(NC(=O)c4nsc5ccccc45)cn3C)cn2C)cc1C(=O)NCCN1CCOCC1 | 1 (≈ 1.52 µM) | 0.125 (≈ 0.19 µM)
Cn1cc(NC(=O)c2cc(NC(=O)c3cc(NC(=O)c4cc5ccccc5oc4=O)cn3C)cn2C)cc1C(=O)NCCN1CCOCC1 | 16 (≈ 23.9 µM) | 0.5 (≈ 0.748 µM)

Results, then the compound that gave them:

MIC (Enterococcus faecalis) [µg/mL] | MIC [1] [µg/mL] | Structure (SMILES)
> 32 | 2 (≈ 2.79 µM) | Cn1cc(NC(=O)c2cc(NC(=O)c3cc(NC(=O)c4sc(-c5ccccc5)cc4Cl)cn3C)cn2C)cc1C(=O)NCCN1CCOCC1
8 (≈ 12.5 µM) | 0.5 (≈ 0.779 µM) | Cn1cc(NC(=O)c2cc(NC(=O)c3cc(NC(=O)c4cn5cccnc5n4)cn3C)cn2C)cc1C(=O)NCCN1CCOCC1
16 (≈ 24.8 µM) | 2 (≈ 3.1 µM) | Cn1cc(NC(=O)c2cc(NC(=O)c3cc(NC(=O)c4ccc5c(c4)OCO5)cn3C)cn2C)cc1C(=O)NCCN1CCOCC1
> 32 | 32 (≈ 53 µM) | Cn1cc(NC(=O)c2cc(NC(=O)c3cc(NC(=O)c4cccn4C)cn3C)cn2C)cc1C(=O)NCCN1CCOCC1
> 32 | 8 (≈ 13.5 µM) | Cn1cc(NC(=O)c2cc(NC(=O)c3cc(NC(=O)c4ccoc4)cn3C)cn2C)cc1C(=O)NCCN1CCOCC1
32 (≈ 44.1 µM) | 0.25 (≈ 0.345 µM) | Cn1cc(NC(=O)c2cc(NC(=O)c3cc(NC(=O)c4sc5cc(Cl)ccc5c4Cl)cn3C)cn2C)cc1C(=O)NCCN1CCOCC1
> 32 | 16 (≈ 24.6 µM) | Cn1cc(NC(=O)c2cc(NC(=O)c3cc(NC(=O)c4cnc5ccccc5c4)cn3C)cn2C)cc1C(=O)NCCN1CCOCC1
> 32 | 4 (≈ 6.65 µM) | Cn1cc(NC(=O)c2cc(NC(=O)c3cc(NC(=O)c4cccnc4)cn3C)cn2C)cc1C(=O)NCCN1CCOCC1
2 (≈ 3.12 µM) | 0.031 (≈ 0.0484 µM) | Cn1cc(NC(=O)c2cc(NC(=O)c3cc(NC(=O)c4cn5ccccc5n4)cn3C)cn2C)cc1C(=O)NCCN1CCOCC1
> 32 | 0.125 (≈ 0.198 µM) | COc1ccc(C(=O)Nc2cc(C(=O)Nc3cc(C(=O)Nc4cc(C(=O)NCCN5CCOCC5)n(C)c4)n(C)c3)n(C)c2)cc1
16 (≈ 21.9 µM) | 0.125 (≈ 0.171 µM) | Cn1cc(NC(=O)c2cc(NC(=O)c3cc(NC(=O)c4sc5cc(Cl)sc5c4Cl)cn3C)cn2C)cc1C(=O)NCCN1CCOCC1
8 (≈ 11 µM) | 0.5 (≈ 0.688 µM) | Cn1cc(NC(=O)c2cc(NC(=O)c3cc(NC(=O)c4sc5cc(F)c(F)cc5c4Cl)cn3C)cn2C)cc1C(=O)NCCN1CCOCC1
